Reference: article PMC3747428, “Asymmetry of the Active Site Loop Conformation between Subunits of Glutamate-1-semialdehyde Aminomutase in Solution” (BioMed Research International, 2013)

How the values were obtained:
[1] = target: T1, Glutamate-1-semialdehyde aminomutase (GSAM) from Synechococcus (Synechococcus elongatus, UniProt P24630); assay: half-transamination converting native enzyme into PMP form, followed by gel filtration and absorbance; type: biochemical; details: reaction intermediate, racemic, 5 mM; 100 mM Na-Tricine pH 7.9
T1 construct: gene hemL; homodimer; mobile loop residues 153-181; Trp53 and Trp67
T1 sequence (P24630 2-433): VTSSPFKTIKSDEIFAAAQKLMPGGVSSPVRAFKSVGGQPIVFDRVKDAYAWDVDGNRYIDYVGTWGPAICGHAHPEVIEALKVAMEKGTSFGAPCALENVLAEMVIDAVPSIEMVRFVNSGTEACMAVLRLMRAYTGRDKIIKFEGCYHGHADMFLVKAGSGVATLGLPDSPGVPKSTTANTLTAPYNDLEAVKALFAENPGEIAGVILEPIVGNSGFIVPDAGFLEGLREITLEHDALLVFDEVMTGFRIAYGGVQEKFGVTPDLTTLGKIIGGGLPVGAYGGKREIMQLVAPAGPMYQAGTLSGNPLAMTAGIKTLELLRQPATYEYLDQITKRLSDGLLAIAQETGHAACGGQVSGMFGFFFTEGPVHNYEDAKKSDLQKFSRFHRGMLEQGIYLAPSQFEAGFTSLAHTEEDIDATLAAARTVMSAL

[2] = target: T1, Glutamate-1-semialdehyde aminomutase (GSAM) from Synechococcus; assay: half-transamination converting native enzyme into PLP form, followed by gel filtration and absorbance; type: biochemical; details: substrate analogue, 20 mM; 100 mM Na-Tricine pH 7.9

| Structure (SMILES) | half-transamination converting native enzyme into PMP form, followed by gel filt [1] | half-transamination converting native enzyme into PLP form, followed by gel filt [2] |
| --- | --- | --- |
| NCC(N)CCC(=O)O (racemic) [DAVA, 4,5-diaminovalerate] | the PMP form (PMP-GSAM), obtained by the addition of DAVA | – |
| O=CCCC(=O)O [succinic semialdehyde] | – | PLP-GSAM), obtained by treating the native enzyme with succinic-1-semialdehyde |
